Measurements reported in patent publication US20240034765A1, “SCG2 NEUROPEPTIDES AND USES THEREOF” (PRESIDENT AND FELLOWS OF HARVARD COLLEGE, priority 2020, published 2024).

Experiments:
[1] = system: IPSCs in CA1 pyramidal neurons; assay: Check that IPSCs in dual whole-cell recordings are monosynaptic (onset latency); type: cell-based, mice; conditions: NBQX and (R)-CPP added together in the bath
Protocol: For electrical stimulation experiments, electrical current was delivered via theta glass stimulation electrode placed in the center of stratum pyramidale or stratum radiatum within 150-200 μm of the recorded neuron pair. The stimulus strength was the minimum required to generate small but reliable currents in both neurons. IPSCs were pharmacologically isolated via the addition of 10 μM NBQX (TOCRIS 1044) and 10 μM (R)-CPP (TOCRIS 0247) to the ACSF perfusion.
For the paired interneuron-to-CA1 pyramidal neuron recordings, the monosynaptic nature of the IPSCs was confirmed based on the expected onset latency of 1-3 ms in slice.

PV-IPSCs in CA1 PCs [2] = assay: shRNA-mediated gene knockdown, dual whole-cell recordings of light-evoked PV-IPSCs; type: in vivo; conditions: Dlx5/6Flp; PVCre mice treated with KA for 24 h
Text: To identify molecular effector(s) of bidirectional perisomatic inhibitory plasticity downstream of Fos activation, short hairpin RNA (shRNA)-mediated gene knockdown was used to determine if any of the six candidate genes mediate the activity-dependent strengthening of PV-mediated inhibition. After verifying the efficiency of knockdown in neurons (see e.g., FIG. 13B) and the absence of adverse effects on overall neuronal viability, individual shRNAs were cloned into a Flp-OFF AAV, allowing payload inactivation by Flp recombinase and the exclusion of shRNA expression in GABAergic INs when using Dlx5/6^Flp mice (see e.g., FIG. 4A, FIG. 4B, FIG. 13C, FIG. 8A).
Following sparse transduction of neurons, PV-IPSCs was simultaneously measured in neighboring pairs of shRNA-positive (mCherry^+) and shRNA-negative (mCherry^−) PCs by photostimulating PV-specific ChR2-expressing boutons in Dlx5/6^Flp; PV^Cre mice that had been treated with KA for 24 h (see e.g., FIG. 4B). […] Similar results were observed following more the physiological condition of NE exposure (see e.g., FIG. 4E, FIG. 13F), indicating a prominent role for CA1 PC-derived Scg2 in the long-term regulation of PV-mediated inhibition.
Viral vectors and titers. All AAVs used were prepared in a Hospital Viral Core and were of serotype AAV2/1. For sparse transductions, viruses were injected at 1×10^8 genome copies per hippocampal hemisphere. For dense transductions, viruses were injected at 2×10^9 genome copies (gc) per hippocampal hemisphere. The viral vectors and original titers were as follows: pAAV-EF1a-DIO-hChR2(H134R)-EYFP (ADDGENE 20298, 1.75×10^13 gc/mL), pAAV-EF1a-fDIO-hChR2(H134R)-EYFP (ADDGENE 55639, 1.39×10^13 gc/mL), pAAV-hSyn-Con/Fon-hChR2-EYFP (ADDGENE 55645, […]), pAAV-pRAM-tTA::TRE-NLS-mKate2-WPREpA (ADDGENE 84474, 2.25×10^13 gc/mL), pAAV-CAG-Cre-GFP (OHIO STATE UNIVERSITY, 1.75×10^13 gc/mL), pAAV-CAG-Cre-mCherry (described herein, 9.10×10^12 gc/mL), pAAV-CAG-Cre-mTagBFP2 (described herein, 2.97×10^12 gc/mL), pAAV-CAG-deltaCre-GFP (described herein, 2.79×10^12 gc/mL), pAAV-FlpOFF-u6-shRNA-CAG-mCherry (described herein): Scrambled control shRNA (SEQ ID NO: 13, ACTTACGCTGAGTACTTCG) (5.08×10^13 gc/mL), Inhba (SEQ ID NO: 14, […]) (4.62×10^13 gc/mL), Bdnf (SEQ ID NO: 15, […]) (6.97×10^13 gc/mL), Pcsk1 (SEQ ID NO: 16, […]) (6.02×10^12 gc/mL), Nptx2 (SEQ ID NO: 17, […]) (1.30×10^12 gc/mL), Scg2#1 (SEQ ID NO: 18, […]) (8.11×10^11 gc/mL), Scg2#2 (SEQ ID NO: 19, […]) (2.75×10^13 gc/mL), Rgs2 (SEQ ID NO: 20, […]) (6.14×10^12 gc/mL), pAAV-CaMKIIa-mCherry (described herein, 3.80×1012 gc/mL), pAAV-CaMKIIa-hM3DGq-T2A-mCherry (described herein, 1.20×10^12 gc/mL), pAAV-hSyn-FlpOFF-Kir2.1-T2A-mCherry (described herein, 2.26×10^12 gc/mL), pAAV-hSyn-FlpOFF-Kir.2.1(Mutant)-T2A-mCherry (described herein, 1.28×10^12 gc/mL; see e.g., Xue et al. (2014), supra), pAAV-u6(Frt)-shRNA#31-CAG-Scg2-rescue (shRNA-resistant)-1×HA-T2A-mCherry-Frt-SV40 (described herein, 1.88×10^12 gc/mL), pAAV-CAG-DIO-Scg2(WT)-3×HA-bGH polyA (described herein, 8.22×10^13 gc/mL), pAAV-CAG-DIO-Scg2(9AA Mutant)-3×HA-bGH polyA (described herein, 6.13×10^13 gc/mL), pAAV-CAG-Frt-Scg2(WT)-1×HA-T2A-mCherry-Frt-bGH polyA (described herein, 1.08×10^13 gc/mL), and pAAV-CAG-Scg2(9AA Mutant)-1×HA-T2A-mCherry-Frt-bGH polyA (described herein, 3.71×10^12 gc/mL).
Ex vivo electrophysiology.

PV-IPSCs in CA1 PCs [3] = assay: Scg2 rescue and overexpression, dual whole-cell recordings of PV-IPSCs; type: in vivo, mice
Text: These findings were further corroborated through a series of rescue and overexpression experiments. […] In addition, amplitudes of light-evoked PV-IPSCs or CCK-IPSC were compared in Scg2-overexpressing (Scg2-OE) and neighboring control (Scg2-WT) neurons; gain-of-function of Scg2 was sufficient to strengthen PV-mediated inhibition and weaken CCK-mediated inhibition, respectively, in the absence of neural activity (see e.g., FIG. 5J, FIG. 15E, FIG. 15F).
Cleavage of the Scg2 precursor gives rise to multiple neuropeptides with distinct functions (see e.g., FIG. 4F). Given that Scg2 cleavage is directed by a series of internal dibasic residues, a cleavage-resistant form of Scg2 was generated in which the nine dibasic sequences were mutated to alanine (9AA-Mut).
Viral vectors and titers. All AAVs used were prepared in a Hospital Viral Core and were of serotype AAV2/1. For sparse transductions, viruses were injected at 1×10^8 genome copies per hippocampal hemisphere. For dense transductions, viruses were injected at 2×10^9 genome copies (gc) per hippocampal hemisphere. […]

CCK-IPSCs in CA1 PCs = assay: Scg2 rescue and overexpression, dual whole-cell recordings of CCK-IPSCs; type: in vivo, mice
[4] = exogenous expression in shRNA-mediated knockdown or Scg2fl/fl knockout conditions
[5] = overexpression in the absence of neural activity

NS(=O)(=O)c1cccc2c1c([N+](=O)[O-])cc1nc(O)c(O)nc12 [NBQX, 2,3-dihydroxy-6-nitro-7-sulphamoyl-benzo(F)quinoxaline]
onset latency of the IPSCs [1]: did not alter

shRNA Nptx2: shRNA in pAAV-FlpOFF-u6-shRNA-CAG-mCherry, SEQ ID NO: 17, GAAGACATTGCCTGAGCTGT
amplitudes of PV-IPSC in shRNA-positive versus neighboring shRNA-negative PCs (PV-IPSCs in CA1 PCs [2]): no effects

shRNA Inhba: shRNA in pAAV-FlpOFF-u6-shRNA-CAG-mCherry, SEQ ID NO: 14, CCTTCCACTCAACAGTCATT
amplitudes of PV-IPSC in shRNA-positive versus neighboring shRNA-negative PCs (PV-IPSCs in CA1 PCs [2]): no effects

O=C(O)[C@H]1CN(CCCP(=O)(O)O)CCN1 [(R)-CPP, 3-((R)-2-Carboxypiperazin-4-yl)-propyl-1-phosphonic acid]
onset latency of the IPSCs [1]: did not alter

shRNA Rgs2: shRNA in pAAV-FlpOFF-u6-shRNA-CAG-mCherry, SEQ ID NO: 20, GCTCCCAAAGAGATAAACAT
amplitudes of PV-IPSC in shRNA-positive versus neighboring shRNA-negative PCs (PV-IPSCs in CA1 PCs [2]): no effects

shRNA Pcsk1: shRNA in pAAV-FlpOFF-u6-shRNA-CAG-mCherry, SEQ ID NO: 16, GATAATGATCATGATCCATT
amplitudes of PV-IPSC in shRNA-positive versus neighboring shRNA-negative PCs (PV-IPSCs in CA1 PCs [2]): no effects

shRNA Bdnf: shRNA in pAAV-FlpOFF-u6-shRNA-CAG-mCherry, SEQ ID NO: 15, GAATTGGCTGGCGATTCATA
amplitudes of PV-IPSC in shRNA-positive versus neighboring shRNA-negative PCs (PV-IPSCs in CA1 PCs [2]): slight decrease

B1: Scg2: wildtype full-length Scg2 (secretogranin II) precursor protein exogenously expressed from AAV in CA1 pyramidal cells (protein, UniProt Q03517 1-617, looked up)
chain: MAGAKAYRLGAVLLLIHLIFLISGAEAASFQRNQLLQKEPDLRLENVQKFPSPEMIRALEYIEKLRQQAHREESSPDYNPYQGVSVPLQLKENGEESHLAESSRDALSEDEWMRIILEALRQAENEPPSAPKENKPYALNLEKNFPVDTPDDYETQQWPERKLKHMRFPLMYEENSRENPFKRTNEIVEEQYTPQSLATLESVFQELGKLTGPSNQKRERVDEEQKLYTDDEDDVYKTNNIAYEDVVGGEDWSPIEEKIETQTQEEVRDSKENTEKNEQINEEMKRSGQLGLPDEENRRESKDQLSEDASKVITYLRRLVNAVGSGRSQSGPNGDRAARLLQKPLDSQSIYQLIEISRNLQIPPEDLIEMLKAGEKPNGLVEPEQDLELAVDLDDIPEADLDRPDMFQSKMLSKGGYPKAPGRGMVEALPDGLSVEDILNVLGMENVVNQKSPYFPNQYSQDKALMRLPYGPGKSRANQIPKVAWIPDVESRQAPYENLNDQELGEYLARMLVKYPELLNTNQLKRVPSPVSSEDDLQEEEQLEQAIKEHLGPGSSQEMERLAKVSKRIPVGSLKNEDTPNRQYLDEDMLLKVLEYLNQEQAEQGREHLAKRAMENM
modifications: full-length
notes: wildtype full-length Scg2 (secretogranin II) precursor protein exogenously expressed from AAV in CA1 pyramidal cells
PV-mediated inhibition, rescue of loss of Scg2 (PV-IPSCs in CA1 PCs [3]; [4]): restored to control levels
PV-mediated inhibition, overexpressing versus neighboring control neurons (PV-IPSCs in CA1 PCs [3]; [5]): strengthen
CCK-mediated inhibition, rescue of loss of Scg2 (CCK-IPSCs in CA1 PCs; [4]): restored to control levels
CCK-mediated inhibition, overexpressing versus neighboring control neurons (CCK-IPSCs in CA1 PCs; [5]): weaken
